Test results reported in patent US12263248B2, “Compounds and compositions for intracellular delivery of therapeutic agents” (ModernaTX, Inc., priority 2018, dated 2025).

Key:
[1] = tested on: hEPO mRNA; assay: hEPO expression after intravenous administration to rats; format: in vivo, rat; details: Table 19B; for [hEPO]: species, dose and time not given; for Lipid/MC3 AUC: relative to MC3
Method: The expression of hEPO and cytokine induction in rats intravenously administered a nanoparticle composition at a dose of 2.0 mpk was measured at 6 h.
(§1) The expression of hEPO in rats intravenously administered a nanoparticle composition at a dose of 0.2 mpk or 2.0 mpk was measured at 6 hours. Table 16 summarize the ratio of hEPO expression levels using various nanoparticle compositions as compared to the hEPO expression level using MC3 formulation and the lipid levels in the liver measured 48 hours after administration, as described above. Tables 17 and 18 summarize the lipid levels in the liver and spleen measured 48 hours after administration of Compounds 28, 33, 53, and 54. Liver and spleen levels represent the average values calculated for 3 rats in each group. As is shown in Tables 17 and 18, less than 10% of Compounds 28, 33, 53, and 54 remained in the liver after 48 hours, while greater than 60% of MC3 remained.
The expression of hEPO induced by intravenous administration to rats of nanoparticle compositions at various doses was measured at 2, 4, 6, 8, 24, and 48 hour time points. FIGS. 3-6 respectively summarize the hEPO expression measured upon intravenous administration of formulations including Compounds 26, 18, 25, and MC3 to rat at various doses. The lipid levels of Compound 26 in the liver after 48 hours were about 19%.
(§2) 005781 The expression of hEPO and lipid levels in the liver and spleen in rats intravenously administered a nanoparticle composition at a dose of 0.2 mpk was measured at various time points. Compounds 18 and 25 were selected for comparison with MC3. Lipids were formulated according to the standard MC3 formulation described above. Rats were administered intravenously a single 0.2 mpk dose and expression monitored at 0.25, 0.5, 1, 2, 4, 8, 24, and 48 hours after administration.
Blood collection and analysis for hEPO. Blood was collected from mice or rats via the tail vein and hEPO concentrations were determined using a hEPO ELISA assay.

[2] = Encapsulation efficiency of RNA (QUANT-IT RIBOGREEN RNA assay); format: physicochemical
How it was run: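 RiboGreen fluorescence (ex ~480, em ~520 nm) compared between intact samples and Triton X-100-lysed samples after 15 min at 37 °C in TE buffer, pH 7.5. Percent free RNA is the blank-corrected intact/disrupted ratio.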

[3] = Particle size and polydispersity index of nanoparticle compositions (Zetasizer Nano ZS); format: physicochemical
How it was run: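 Zetasizer Nano ZS; samples in 1×PBS; read-out: particle size plus polydispersity index.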

[4] = Residual lipid levels in rat liver and spleen (UPLC-MS); format: in vivo; details: Table 19B, liver, 24 h
Method: At 48 h liver tissue was harvested for lipid quantification. To pre-weighed tissues, Milli-Q water was added (900 μL water per 100 mg tissue). Tissues were homogenized using an Omni probe homogenizer until uniform. 50 μL of samples and matrix calibration standards were aliquoted into a 96-well plate. 50 μL of blank matrix for matrix blanks and control blanks were aliquoted. 400 μL is spiking solution were manually added to all samples except matrix blanks. 400 μL of 50:50 ACN:IPA were manually added to matrix blanks. The plate was covered and the samples vortexed and centrifuged for 5 minutes at >3000 rpm. 200 μL of the samples were transferred into a clean 96-well plate for analysis. Samples were analyzed on a Waters Acquity UPLC using a Higgins Analytical Clipeus C8 column ([…], 30×2.1 mm) and a gradient of either 70-95% or 60-95% (Mobile Phase A: 5 mM ammonium formate in 50:50:1 H2O:MeOH:formic acid; Mobile Phase B: 5 mM ammonium formate in 100:1 MeOH:formic acid) over 1.3 min at 1.2 mL/min (column temperature 55° C.). Detection was based on electrospray ionization (ESI) in positive mode using a Sciex API5500 Mass Spectrometer.
as §1, §2

[5] = tested on: luciferase (Luc) mRNA; assay: Luc expression, whole body bioluminescence after intravenous administration to mice; format: in vivo; details: for Lipid/MC3 AUC / AUC (p/s * h): Table 3D; for AUC (p/s * h): Luc; for Total Flux 3 hours / Total Flux 6 hours / Total Flux 24 hours: mice, i.v., 0.5 mg/kg, Luc mRNA
How it was run: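 Bioluminescence, read as region-of-interest total flux at 3, 6 and 24 h, followed a single 0.5 mg/kg intravenous dose of Luc mRNA-loaded nanoparticles in mice (n=6). Luciferin substrate (200 μL, 15 mg/mL in PBS) was injected intraperitoneally into CD-1 mice 15 minutes ahead of each imaging point.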

[6] = Apparent (surface) pKa of the LNP formulation (TNS assay); format: physicochemical; details: for pKa: Table 1A
How it was run: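 Fluorescence of TNS probe added to LNP samples (mRNA 0.04 mg/mL) was read across 21 buffers of pH about 3-12, triplicate per pH. The inflection point of the sigmoidal fluorescence-vs-pH curve, […], gives apparent pKa; method validated in 1× PBS and Tris/sucrose buffer.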

[7] = Lipid clearance: lipid level in mouse liver tissue (LC-MS/MS); format: in vivo; details: Table 3D, intravenous
Method: Quantification of Lipid by LC-MS/MS: Liver samples were homogenized following addition of 19 eq. (w/v) of water (DF=20). Protein was precipitated and analyzed against calibration standards prepared in matching blank. Chromatographic separation and quantification was accomplished with a LC-MS/MS System. Samples were injected and separated via HPLC A triple-quadrupole MS/MS system operated in positive ion mode was used for signal detection.

[8] = tested on: luciferase (Luc) mRNA; assay: Luc expression in liver, lung, spleen and femur 6 hours after intravenous administration; format: in vivo; details: mice, 0.5 mpk; for Total Flux Liver / Total Flux Lung / Total Flux Spleen: intravenous
How it was run: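 LNP-formulated mRNA given IV to mice (n=3) at 0.5 mpk; at 6 h, bioluminescence imaged ex vivo 15 min after IP D-luciferin (15 mg/mL, 200 μL), organs imaged within 25 min. Values are total flux by region of interest.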

[9] = tested on: luciferase (Luc) mRNA; assay: Luc expression (total flux) after intramuscular administration; format: in vivo, mice; details: Table 3H; intramuscular, Luc
How it was run: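 Total-flux luciferase signal in mice after one intramuscular injection. Nanoparticle formulations contained modified Luc mRNA, either alone or co-dosed with H10 mRNA (e.g., 0.0005 or 0.005 mpk of each), giving 0.001 or 0.01 mpk.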

[10] = Table 1B, formulated with hEPO mRNA
[11] = Table 1A, lipid:DSPC:cholesterol:PEG-DMG 50:10:38.5:1.5 mol %
[12] = second column (head also says 6 h)

| Compound | AUC (hEPO) [1] | [hEPO] [1] | EE (%) [2, 10] | PDI [3, 10] | Size (nm) [3, 10] | % dose remaining, liver, 24 h [4] | Lipid/MC3 AUC ([5]; intravenous) | AUC (p/s * h) ([5]; intravenous) | Total Flux 3 hours [5] | Total Flux 6 hours [5] | Total Flux 24 hours [5] | EE (%) ([2]; Table 1A) | PDI ([3]; Table 1A) | Size (nm) [3, 11] | pKa [6] | % Dose Remaining in Liver 6 h [7, 12] | % Dose Remaining in Liver 6 h [7] | Total Flux Liver [8] | Total Flux Lung [8] | Total Flux Spleen [8] | also measured |
| --- | --- | --- | --- | --- | --- | --- | --- | --- | --- | --- | --- | --- | --- | --- | --- | --- | --- | --- | --- | --- | --- |
| CCCCCCCCCOC(=O)CCCCCCCN(CCO)CCCCCCC(C)OC(=O)C(CCCCCCCC)CCCCCCCC (stereo not drawn) [Compound 234, 8-((2-Hydroxyethyl)(8-(nonyloxy)-8-oxooctyl)amino)octan-2-yl 2-octyldecanoate] | 5.17e+07 pg·h/mL | 3.56e+06 pg/mL | 94.7% | 0.22 | 96.3 nm | 0.03% | – | – | – | – | – | – | – | – | – | – | – | – | – | – | – |
| CCCCCCCCC(CCCCCCCC)OC(=O)CCCCCCCN(CCO)CCCCCCCC(=O)OCC(CCCCCCC)OC (stereo not drawn) [Compound 148, Heptadecan-9-yl 8-((2-hydroxyethyl)(8-((2-methoxynonyl)oxy)-8-oxooctyl)amino)octanoate] | – | – | – | – | – | – | 2.6 | 4.965E+011 p/s * h | 6.28E+10 | 3.71E+10 | 1.43E+09 | 25.49% | 0.200 | 192.7 nm | 6.646 | <1% | <1% | 4.39E+09 | 3.27E+07 | 2.71E+09 | Flux in the spleen ([8]; i.v., in words): highest |
| CCCCCCCCCOC(=O)CCCCCCCN(CCO)CCCCCCCCCC(CCCCCCCC)CCCCCCCC [Compound 153, Nonyl 8-((2-hydroxyethyl)(10-octyloctadecyl)amino)octanoate] | – | – | – | – | – | – | 1.4 | 2.697E+011 p/s * h | 1.69E+10 | 2.28E+10 | 5.10E+08 | 98.39% | 0.150 | 83.7 nm | 6.580 | <1% | <1% | 1.18E+09 | 6.42E+06 | 1.42E+08 | – |
| CCCCCCCCCOC(=O)CCCCCCCNCCCCCCCC(=O)OC(CCCCCCCC)CCCCCCCC [Compound 237] | 4.09e+07 pg·h/mL | 3.47e+06 pg/mL | 99.3% | 0.15 | 82.5 nm | 0.14% | – | – | – | – | – | – | – | – | – | – | – | – | – | – | – |
| CCCCCCCCCOC(=O)CCCCCCCN(CCCCCCCC(=O)OC(CCCCCCCC)CCCCCCCC)C(C)CO (stereo not drawn) [Compound 157, Heptadecan-9-yl 8-((1-hydroxypropan-2-yl)(8-(nonyloxy)-8-oxooctyl)amino)octanoate] | – | – | – | – | – | – | 1.3 | 2.481E+011 p/s * h | 8.54E+09 | 2.22E+10 | 1.90E+08 | 96.04% | 0.093 | 61 nm | 6.275 | <1% | <1% | 2.27E+09 | 6.70E+06 | 5.15E+07 | Novel lipid/MC3 expression ratio, 6 hr. time point, i.v. ([5]; luciferase, intravenous, relative to MC3 formulation): 1.29; App. pKa ([6]; Table 3F): 6.27; AUC (p/s * h) [9]: 4.68E+08 p/s * h; Lipid/MC3 AUC [9]: 0.80 |
| CCCCCCCCC(CCCCCCCC)OC(=O)CCCCCCCN(CCO)CCCCCCCCCC(=O)OCCCCCCC [Compound 189, Heptyl 10-((8-(heptadecan-9-yloxy)-8-oxooctyl)(2-hydroxyethyl)amino)decanoate] | 4.35e+07 pg·h/mL | 3.01e+06 pg/mL | 93.9% | 0.16 | 95.5 nm | 0.00% | – | – | – | – | – | – | – | – | – | – | – | – | – | – | Lipid/MC3 AUC [1]: 2.35 |
| CCCCCCCCC(CCCCCCCC)OC(=O)CCCCCCCN(C)CCCCCCCCCCCC(=O)OCCCCC [Compound 150, Pentyl 12-((8-(heptadecan-9-yloxy)-8-oxooctyl)(methyl)amino)dodecanoate] | – | – | – | – | – | – | 1.4 | 2.704E+011 p/s * h | 1.66E+10 | 2.31E+10 | 3.86E+08 | 96.72% | 0.082 | 63.1 nm | 6.101 | <1% | <1% | 1.54E+09 | 2.20E+06 | 3.43E+07 | – |
| CCCCCCCCCOC(=O)CCCCCCCN(CCO)CCCCCC(=O)OC1CCC(CCCCC)CC1 (stereo not drawn) [Compound 232, Nonyl 8-((2-hydroxyethyl)(6-oxo-6-((4-pentylcyclohexyl)oxy)hexyl)amino)octanoate] | 73800 pg·h/mL | 7024.114 pg/mL | 76.3% | 0.23 | 150.3 nm | 0.00% | – | – | – | – | – | – | – | – | – | – | – | – | – | – | Lipid/MC3 AUC [1]: <0.01 |
